Bounds are passed on as bounds.

The target of the test is T1, human TSHR (Homo sapiens, UniProt P16473).
T1 construct: expressed in transfected cells
T1 sequence (P16473 21-764): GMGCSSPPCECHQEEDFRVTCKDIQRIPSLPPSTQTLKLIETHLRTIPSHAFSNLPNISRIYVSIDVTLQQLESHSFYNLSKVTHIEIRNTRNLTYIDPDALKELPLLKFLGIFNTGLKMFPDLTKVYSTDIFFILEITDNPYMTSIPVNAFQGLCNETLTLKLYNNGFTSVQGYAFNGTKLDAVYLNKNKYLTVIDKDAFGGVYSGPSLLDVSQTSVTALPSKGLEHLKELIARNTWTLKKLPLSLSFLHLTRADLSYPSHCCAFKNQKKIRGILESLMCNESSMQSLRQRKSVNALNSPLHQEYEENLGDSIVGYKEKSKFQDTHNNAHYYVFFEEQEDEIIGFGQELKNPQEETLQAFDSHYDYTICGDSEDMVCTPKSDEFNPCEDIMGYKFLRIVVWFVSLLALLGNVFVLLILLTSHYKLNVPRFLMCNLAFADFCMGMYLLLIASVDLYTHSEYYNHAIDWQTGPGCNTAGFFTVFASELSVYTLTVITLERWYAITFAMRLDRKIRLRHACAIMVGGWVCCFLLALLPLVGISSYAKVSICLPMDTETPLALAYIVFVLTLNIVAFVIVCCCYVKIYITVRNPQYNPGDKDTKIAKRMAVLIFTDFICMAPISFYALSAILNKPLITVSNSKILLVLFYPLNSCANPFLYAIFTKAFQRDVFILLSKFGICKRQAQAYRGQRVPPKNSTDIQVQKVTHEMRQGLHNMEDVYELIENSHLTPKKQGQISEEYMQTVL
Nature of the test: Antagonist activity using TSH-induced cAMP production in human TSHR-stably expressing CHO cells. Format: cell-based. Particulars: human TSH 50 ng/mL. The procedure: Measurement of Antagonist Activity Using TSH-Induced cAMP Production in Human TSHR-Stably Expressing CHO Cells as an Indicator
The human TSHR gene sequence (reference number NM_000369.2) was inserted into the multicloning site of pcDNA3.1(+). The constructed plasmid vector was introduced into CHO cells using the lipofection method to establish human TSHR-stably expressing CHO cells. The obtained cells were seeded at 5×10^4 cells/well in a 96-well poly-D-lysine-coated plate, and cultured in an F12 culture medium containing 10% FBS, 400 μg/mL of G418, 50 U/mL of penicillin and 50 μg/mL of streptomycin under conditions of 37° C. and 5% CO2 for 1 day. After the culture medium was removed, the cells were washed twice with 100 μL of an assay buffer solution (Hanks' Balanced Salt Solution containing 20 mM HEPES and 1 mM IBMX) per well. 30 μL of a test compound-containing assay buffer solution was added to the well and incubated at room temperature for 15 minutes. Then, 30 μL of an assay buffer solution containing human TSH (final concentration 50 ng/mL, R&D Systems, Inc.) was added, and incubated at 37° C. for 1 hour. The supernatant was removed, a Lysis and Detection Buffer 2 (Cisbio) was added, and the mixture was incubated at room temperature for 1 hour to prepare a cell lysate. According to the instruction manual of a cAMP Gs HiRange kit (Cisbio), the cell lysate, d2-labeled cAMP and anti-cAMP Europium Cryptate labeled antibodies (Cisbio) were reacted in a 384-well white microplate. Then, a fluorescence intensity ratio (measurement wavelength 665 nm/620 nm) was measured using a multi-plate reader (PHERAstar FSX, BMG LABTECH, Japan). The fluorescence intensity ratio of each sample was converted to a cAMP content using a standard curve. The cAMP content was converted as a percentage of the control value to calculate the cAMP production rate. The CAMP production rate was plotted against the test compound concentration using Prism (Graph Pad Software Inc.) to calculate the IC50 value. The IC50 of each test compound is shown in the above tables. In the tables, IC50<0.5 μM: A, 0.5 μM≤IC50<3.0 μM: B, 3.0 μM≤IC50<30 μM: C are shown.
(Changes in cAMP serve as a functional read-out for many G protein-coupled receptors.)
As usually defined, the IC50 is the concentration needed to halve the response being measured. A low value points to greater potency. Turning to `Cc1ccc2c(c1Oc1cc(F)ccc1Cl)N(C)C(=O)[C@H](NC(N)=O)C2` [Example 39, ((3R)-8-(2-chloro-5-fluorophenoxy)-1,7-dimethyl-2-oxo-1,2,3,4-tetrahydroquinolin-3-yl)urea], the half-inhibitory concentration (IC50) was below 500 nM. `CN1C(=O)[C@H](NC(N)=O)Cc2cccc(Oc3ccccc3Cl)c21` [Example 40, ((3R)-8-(2-chlorophenoxy)-1-methyl-2-oxo-1,2,3,4-tetrahydroquinolin-3-yl)urea]: the half-inhibitory concentration (IC50) was below 500 nM. In the case of `CN1C(=O)[C@H](NC(N)=O)Cc2cccc(OC3CCCCC3)c21` [Example 41], the 50% inhibitory concentration (IC50) is 500 to 3000 nM. On to `CN1C(=O)[C@H](NC(N)=O)Cc2cccc(OC3CCCC3)c21` [Example 42, ((3R)-8-(cyclopentyloxy)-1-methyl-2-oxo-1,2,3,4-tetrahydroquinolin-3-yl)urea], for which the half-maximal inhibitory concentration (IC50) lay within 500 to 3000 nM.

Take `CN1C(=O)[C@H](NC(N)=O)Cc2ccc(F)c(Oc3ccccc3C(F)F)c21` [Example 43, ((3R)-8-(2-(difluoromethyl)phenoxy)-7-fluoro-1-methyl-2-oxo-1,2,3,4-tetrahydroquinolin-3-yl)urea]: the IC50 fell in the range of 500 to 3000 nM. The molecule `CN1C(=O)[C@H](NC(N)=O)Cc2ccc(F)c(Oc3cc(F)ccc3Cl)c21` [Example 44, ((3R)-8-(2-chloro-5-fluorophenoxy)-7-fluoro-1-methyl-2-oxo-1,2,3,4-tetrahydroquinolin-3-yl)urea] yielded an IC50 below 500 nM. `Cc1ccc2c(c1Oc1ccccc1F)N(C)C(=O)[C@H](NC(N)=O)C2` [Example 45, ((3R)-8-(2-fluorophenoxy)-1,7-dimethyl-2-oxo-1,2,3,4-tetrahydroquinolin-3-yl)urea] yielded an IC50 below 500 nM.

With `Cc1ccc2c(c1Oc1cccc(F)c1)N(C)C(=O)[C@H](NC(N)=O)C2` [Example 46, ((3R)-8-(3-fluorophenoxy)-1,7-dimethyl-2-oxo-1,2,3,4-tetrahydroquinolin-3-yl)urea], the concentration for half-maximal inhibition (IC50) is below 500 nM. In the case of `Cc1ccccc1Oc1cccc2c1N(C)C(=O)[C@H](NC(N)=O)C2` [Example 47, ((3R)-1-methyl-8-(2-methylphenoxy)-2-oxo-1,2,3,4-tetrahydroquinolin-3-yl)urea], the IC50 was below 500 nM. `Cc1ccc(F)cc1Oc1cccc2c1N(C)C(=O)[C@H](NC(N)=O)C2` [Example 48, ((3R)-8-(5-fluoro-2-methylphenoxy)-1-methyl-2-oxo-1,2,3,4-tetrahydroquinolin-3-yl)urea] gave an IC50 below 500 nM. With `CN1C(=O)[C@H](NC(N)=O)Cc2ccc(C(F)(F)F)c(Oc3ccccc3F)c21` [Example 49, ((3R)-8-(2-fluorophenoxy)-1-methyl-2-oxo-7-(trifluoromethyl)-1,2,3,4-tetrahydroquinolin-3-yl)urea], the IC50 is below 500 nM.

With `Cc1ccc2c(c1Oc1cc(F)ccc1F)N(C)C(=O)[C@H](NC(N)=O)C2` [Example 50, ((3R)-8-(2,5-difluorophenoxy)-1,7-dimethyl-2-oxo-1,2,3,4-tetrahydroquinolin-3-yl)urea], the concentration for half-maximal inhibition (IC50) is below 500 nM. Molecule `CN1C(=O)[C@H](NC(N)=O)Cc2cccc(Cc3ccccc3Cl)c21` [Example 51, ((3R)-8-((2-chlorophenyl)methyl)-1-methyl-2-oxo-1,2,3,4-tetrahydroquinolin-3-yl)urea] gave a half-maximal inhibitory concentration (IC50) below 500 nM. On to `CN1C(=O)[C@H](NC(N)=O)Cc2cccc(Cc3cc(F)ccc3Cl)c21` [Example 52], for which the half-inhibitory concentration (IC50) was below 500 nM. `CN1C(=O)[C@H](NC(N)=O)Cc2cccc(Cc3ccccc3C(F)(F)F)c21` [Example 53, ((3R)-1-methyl-2-oxo-8-((2-(trifluoromethyl)phenyl)methyl)-1,2,3,4-tetrahydroquinolin-3-yl)urea]: the IC50 was below 500 nM. The molecule `Cc1ccccc1Cc1cccc2c1N(C)C(=O)[C@H](NC(N)=O)C2` [Example 54, ((3R)-1-methyl-8-((2-methylphenyl)methyl)-2-oxo-1,2,3,4-tetrahydroquinolin-3-yl)urea] showed an IC50 below 500 nM.

The molecule `CN1C(=O)[C@H](NC(N)=O)Cc2cccc(Cc3ccccc3C(F)F)c21` [Example 55, ((3R)-8-((2-(difluoromethyl)phenyl)methyl)-1-methyl-2-oxo-1,2,3,4-tetrahydroquinolin-3-yl)urea] had an IC50 below 500 nM.

As to `CN1C(=O)[C@H](NC(N)=O)Cc2ccc(F)c(Cc3cc(F)ccc3Cl)c21` [Example 56], the IC50 is below 500 nM. `CN1C(=O)[C@H](NC(N)=O)Cc2ccc(Cl)c(Cc3cc(F)ccc3Cl)c21` [Example 57, ((3R)-7-chloro-8-((2-chloro-5-fluorophenyl)methyl)-1-methyl-2-oxo-1,2,3,4-tetrahydroquinolin-3-yl)urea] gave an IC50 below 500 nM.

`Cc1ccc2c(c1Cc1ccccc1Cl)N(C)C(=O)[C@H](NC(N)=O)C2` [Example 58, ((3R)-8-((2-chlorophenyl)methyl)-1,7-dimethyl-2-oxo-1,2,3,4-tetrahydroquinolin-3-yl)urea] yielded an IC50 below 500 nM. `Cc1ccc2c(c1Cc1cc(F)ccc1Cl)N(C)C(=O)[C@H](NC(N)=O)C2` [Example 59, ((3R)-8-((2-chloro-5-fluorophenyl)methyl)-1,7-dimethyl-2-oxo-1,2,3,4-tetrahydroquinolin-3-yl)urea] registered a concentration for half-maximal inhibition (IC50) below 500 nM. As for `CN1C(=O)[C@H](NC(N)=O)Cc2ccc(F)c(Cc3ccccc3Cl)c21` [Example 60, ((3R)-8-((2-chlorophenyl)methyl)-7-fluoro-1-methyl-2-oxo-1,2,3,4-tetrahydroquinolin-3-yl)urea], the figure is below 500 nM; as for `CN1C(=O)[C@H](NC(N)=O)Cc2ccc(F)c(Cc3ccccc3C(F)(F)F)c21` [Example 61, ((3R)-7-fluoro-1-methyl-2-oxo-8-((2-(trifluoromethyl)phenyl)methyl)-1,2,3,4-tetrahydroquinolin-3-yl)urea], below 500 nM. For `CN1C(=O)[C@H](NC(N)=O)Cc2ccc(Cl)c(Cc3ccccc3Cl)c21` [Example 62, ((3R)-7-chloro-8-((2-chlorophenyl)methyl)-1-methyl-2-oxo-1,2,3,4-tetrahydroquinolin-3-yl)urea], the half-inhibitory concentration (IC50) is below 500 nM. Regarding `Cc1ccccc1Cc1c(F)ccc2c1N(C)C(=O)[C@H](NC(N)=O)C2` [Example 63, ((3R)-7-fluoro-1-methyl-8-((2-methylphenyl)methyl)-2-oxo-1,2,3,4-tetrahydroquinolin-3-yl)urea], the IC50 is below 500 nM. Molecule `CN1C(=O)[C@H](NC(N)=O)Cc2ccc(Cl)c(Cc3ccccc3F)c21` [Example 64, ((3R)-7-chloro-8-((2-fluorophenyl)methyl)-1-methyl-2-oxo-1,2,3,4-tetrahydroquinolin-3-yl)urea] yielded a half-maximal inhibitory concentration (IC50) of 500 to 3000 nM. For `CN1C(=O)[C@H](NC(N)=O)Cc2ccc(Cl)c(Cc3cccc(F)c3)c21` [Example 65], the 50% inhibitory concentration (IC50) is 500 to 3000 nM. Take `Cc1ccc2c(c1Cc1cccc(F)c1)N(C)C(=O)[C@H](NC(N)=O)C2` [Example 67]: the IC50 lay within 3000 to 30000 nM.

For the molecule `Cc1ccc(F)cc1Cc1cccc2c1N(C)C(=O)[C@H](NC(N)=O)C2` [Example 68, ((3R)-8-((5-fluoro-2-methylphenyl)methyl)-1-methyl-2-oxo-1,2,3,4-tetrahydroquinolin-3-yl)urea], the IC50 is below 500 nM.

`CN1C(=O)[C@H](NC(N)=O)Cc2ccc(Cl)c(Oc3cc(F)ccc3F)c21` [Example 69, ((3R)-7-chloro-8-(2,5-difluorophenoxy)-1-methyl-2-oxo-1,2,3,4-tetrahydroquinolin-3-yl)urea] yielded a half-inhibitory concentration (IC50) below 500 nM. As for `Cc1ccc2c(c1Oc1cc(F)ccc1C(F)F)N(C)C(=O)[C@H](NC(N)=O)C2` [Example 70, ((3R)-8-(2-(difluoromethyl)-5-fluorophenoxy)-1,7-dimethyl-2-oxo-1,2,3,4-tetrahydroquinolin-3-yl)urea], the figure is below 500 nM.

In the case of `CN1C(=O)[C@H](NC(N)=O)Cc2ccc(CO)c(Oc3cc(F)ccc3Cl)c21` [Example 71, ((3R)-8-(2-chloro-5-fluorophenoxy)-7-(hydroxymethyl)-1-methyl-2-oxo-1,2,3,4-tetrahydroquinolin-3-yl)urea], the IC50 was below 500 nM.

With `CN1C(=O)[C@H](NC(N)=O)Cc2ccc(C(F)F)c(Oc3cc(F)ccc3Cl)c21` [Example 72, ((3R)-8-(2-chloro-5-fluorophenoxy)-7-(difluoromethyl)-1-methyl-2-oxo-1,2,3,4-tetrahydroquinolin-3-yl)urea], the IC50 was below 500 nM. The molecule `CN1C(=O)[C@H](NC(N)=O)Cc2ccc(CF)c(Oc3cc(F)ccc3Cl)c21` [Example 73, ((3R)-8-(2-chloro-5-fluorophenoxy)-7-(fluoromethyl)-1-methyl-2-oxo-1,2,3,4-tetrahydroquinolin-3-yl)urea] returned an IC50 below 500 nM.

The values above are taken from patent publication US20250361210A1, “3,4-DIHYDROQUINOLIN-2(1H)-ONE COMPOUND” (Kissei Pharmaceutical Co., Ltd., priority 2022, published 2025).
